Measurements reported in patent US20240190994A1, “FUSION PROTEIN BETWEEN ANTIGEN-BINDING MOLECULE AND STREPTAVIDIN VARIANT” (The University of Tokyo, priority 2021, published 2024).

Assays:
[1] = test system: KPL-4 xenograft (HER2-positive breast cancer); assay: in vivo breast cancer tumor model experiment, tumor volume; design: species or system BALB/cSlc-nu/nu nude mice
Protocol: The KPL-4 cell line was maintained in DMEM (low glucose) (FUJIFILM Wako Pure Chemical Corporation, Osaka, Japan) supplemented with 10% FBS, 100 U/mL penicillin, and 100 μg/mL streptomycin (#15140122, Thermo Fisher Scientific, Waltham, MA, USA) (Kurebayashi J, Otsuki T, Tang CK, et al. Isolation and characterization of a new human breast cancer cell line, KPL-4, expressing the Erb B family receptors and interleukin-6. Br J Cancer. 1999; 79: 707-717. doi:10.1038/sj.bjc.6690114). The KPL-4 cells (7,500,000) were subcutaneously transplanted into the thigh of BALB/cSlc-nu/nu nude mice (Sankyo Lab Service, Inc., Tokyo, Japan). Proliferation of the subcutaneous tumor was monitored by measuring a tumor volume (0.5×length×width^2) using Vernier calipers, and the body weight of the animals was then monitored as an indicator of treatment-related toxicity.
In this study, in order to evaluate tumor recurrence, the observation period was set to be […] after the initial treatment. […] Finally, the xenograft mouse models were sacrificed at 97 days after the treatment, namely, at 19 days or more after the second treatment.
Preparation of ZHER2:342-Cupid-His and Psyche-Ax-SiPC was as previously reported (Yamatsugu K, Katoh H, Yamashita T, et al., Antibody mimetic drug conjugate manufactured by high-yield Protein Expr Purif. 2022; 192: 106043. doi:10.1016/j.pep.2021 106043). Briefly speaking, Psyche-Ax-SiPC solubilized in dimethyl sulfoxide at a concentration of 5 mM was preserved as a stock solution at −80° C. In order to prepare a complex, ZHER2:342-Cupid-His and Psyche-Ax-SiPC were mixed with each other at a molar ratio of 1:2 in a dark place on ice for 10 minutes. A concentrate of ZHER2:342-Cupid-His-Ax-SiPC was diluted using a phosphate-buffered saline.
Twenty hours after the injection, the mice in the ZHER2:342-Cupid-His-Ax-SiPC group were irradiated with a 690-nm light emitting diode light (Yamato Scientific Co., Ltd., Tokyo, Japan) at 230 J/cm^−2. Forty-eight hours after the initial light irradiation, the tumor was irradiated again in the same manner as that described above.

[2] = test system: KPL-4 xenograft tumor site, skin and major organs; assay: pathological analysis (H & E histology) of xenograft mouse models; assay type: in vivo, BALB/cSlc-nu/nu nude mice; settings: 97th day
Source text: Skin samples from xenograft tumor sites, and samples from other important organs including lung, heart, kidney, liver and gastrointestinal tract, were obtained from the mice. […] Stained slides were dehydrated again by being immersed in ethanol and then being immersed in xylene. […] The H & E-stained slides were histologically examined using the OLYMPUS cellSens Standard system (OLYMPUS, Tokyo, Japan).

In the case of trastuzumab emtansine [Kadcyla], the “tumor size after the first treatment” value ([1]; Kadcyla 300 μg/mouse, ZHER2:342-Cupid-His-Ax-SiPC 150 μg/mouse with 690-nm light, n=10, FIG. 11) is reported as “a reduction in the tumor size was observed”, the “cases with tumor volume decreased to 0 mm^3” value ([1]; at 21 days after the injection, n=10) is reported as 1 case and the “course of tumor volume after the treatment” value ([1]; single administration, FIGS. 11B-D) is reported as “gradually decreased”. For the same substance, the “tumor size in the long term after single treatment” value ([1]; up to 2 months after the injection) was “steady decrease in the tumor size”, the pathological response [2] was “pathological complete remission was achieved” and the “metastatic tumors in lymph nodes or distant organs” value ([2]; FIG. 13 and FIG. 14) was “No metastatic tumors were observed”. For the same substance, the “residual tumor cells in the subcutaneous region around the xenograft tumor site” value ([2]; n=10, FIG. 13 and FIG. 14) was “no residual tumor cells were observed”.
